Experimental data taken from patent publication US20090304692A1, “TRIAZINE COMPOUNDS AS PI3 KINASE AND MTOR INHIBITORS” (Wyeth, priority 2008, published 2009).
Values joined by “and” are separate entries in the source; they are usually repeats but may differ in a detail not shown here. Equal values may be shown once. Read-outs that look alike come from different tables or passages of the source.

Columns and labels:
Human mTOR (FLAG-TOR) = Human mTOR (FLAG-TOR) (Homo sapiens, UniProt P42345); test: mTOR kinase assay (DELFIA format, purified enzyme); assay type: biochemical; settings: read-out: IC50 mTOR
[1] = test system: human breast MDA-MB-361 tumor cell line; test: In vitro cell culture growth assay (MTS), MDA-MB-361; assay type: cell-based; settings: Homo sapiens, MDA-MB-361, 72 h, MTS cell growth assay, three days after drug treatment, read-out: IC50 MDA-MB-361
[2] = test system: human prostate PC3-mm2 tumor cell line; test: In vitro cell culture growth assay (MTS), PC3-mm2; assay type: cell-based; settings: Homo sapiens, PC3MM2, 72 h, MTS cell growth assay, three days after drug treatment, read-out: IC50 PC3-mm2
PI3K-α = PI3K-α (Homo sapiens, UniProt P42336); test: PI3K-alpha fluorescence polarization assay
PI3K-γ = PI3K-γ (Homo sapiens, UniProt P48736); test: PI3K-gamma fluorescence polarization assay; settings: read-out: IC50 PI3Kγ
Sequence of PI3K-γ (P48736 whole entry, species assumed): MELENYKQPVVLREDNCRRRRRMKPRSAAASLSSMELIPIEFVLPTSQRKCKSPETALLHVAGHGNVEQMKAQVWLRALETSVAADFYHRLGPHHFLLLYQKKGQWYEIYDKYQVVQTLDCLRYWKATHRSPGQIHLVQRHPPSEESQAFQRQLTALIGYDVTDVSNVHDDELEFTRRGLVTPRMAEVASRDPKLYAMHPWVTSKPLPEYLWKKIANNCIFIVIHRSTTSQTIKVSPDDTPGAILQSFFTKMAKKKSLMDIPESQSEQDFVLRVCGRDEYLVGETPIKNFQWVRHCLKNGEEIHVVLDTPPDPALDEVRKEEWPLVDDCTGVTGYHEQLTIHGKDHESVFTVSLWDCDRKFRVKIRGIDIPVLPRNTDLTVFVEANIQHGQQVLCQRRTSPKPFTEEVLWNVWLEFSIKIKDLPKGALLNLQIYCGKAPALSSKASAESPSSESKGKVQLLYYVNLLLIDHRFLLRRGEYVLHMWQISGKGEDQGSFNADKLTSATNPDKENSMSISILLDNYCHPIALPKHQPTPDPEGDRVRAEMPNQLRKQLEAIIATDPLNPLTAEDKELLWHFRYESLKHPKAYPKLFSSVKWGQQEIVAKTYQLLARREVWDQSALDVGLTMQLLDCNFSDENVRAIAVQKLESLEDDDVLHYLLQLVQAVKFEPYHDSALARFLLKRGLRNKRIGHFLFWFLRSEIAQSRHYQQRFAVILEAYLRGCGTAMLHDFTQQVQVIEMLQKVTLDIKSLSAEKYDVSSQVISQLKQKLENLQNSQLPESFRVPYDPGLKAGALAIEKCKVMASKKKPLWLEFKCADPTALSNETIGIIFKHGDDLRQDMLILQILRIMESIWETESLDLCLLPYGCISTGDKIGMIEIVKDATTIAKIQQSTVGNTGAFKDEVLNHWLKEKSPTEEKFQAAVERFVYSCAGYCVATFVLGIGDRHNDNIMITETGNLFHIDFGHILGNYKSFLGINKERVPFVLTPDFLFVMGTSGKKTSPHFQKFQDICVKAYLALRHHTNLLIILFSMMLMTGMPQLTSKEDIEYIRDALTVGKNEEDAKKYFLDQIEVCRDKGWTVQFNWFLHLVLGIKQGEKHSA

Sequence of Human mTOR (FLAG-TOR) (P42345 1360-2549 limits assumed): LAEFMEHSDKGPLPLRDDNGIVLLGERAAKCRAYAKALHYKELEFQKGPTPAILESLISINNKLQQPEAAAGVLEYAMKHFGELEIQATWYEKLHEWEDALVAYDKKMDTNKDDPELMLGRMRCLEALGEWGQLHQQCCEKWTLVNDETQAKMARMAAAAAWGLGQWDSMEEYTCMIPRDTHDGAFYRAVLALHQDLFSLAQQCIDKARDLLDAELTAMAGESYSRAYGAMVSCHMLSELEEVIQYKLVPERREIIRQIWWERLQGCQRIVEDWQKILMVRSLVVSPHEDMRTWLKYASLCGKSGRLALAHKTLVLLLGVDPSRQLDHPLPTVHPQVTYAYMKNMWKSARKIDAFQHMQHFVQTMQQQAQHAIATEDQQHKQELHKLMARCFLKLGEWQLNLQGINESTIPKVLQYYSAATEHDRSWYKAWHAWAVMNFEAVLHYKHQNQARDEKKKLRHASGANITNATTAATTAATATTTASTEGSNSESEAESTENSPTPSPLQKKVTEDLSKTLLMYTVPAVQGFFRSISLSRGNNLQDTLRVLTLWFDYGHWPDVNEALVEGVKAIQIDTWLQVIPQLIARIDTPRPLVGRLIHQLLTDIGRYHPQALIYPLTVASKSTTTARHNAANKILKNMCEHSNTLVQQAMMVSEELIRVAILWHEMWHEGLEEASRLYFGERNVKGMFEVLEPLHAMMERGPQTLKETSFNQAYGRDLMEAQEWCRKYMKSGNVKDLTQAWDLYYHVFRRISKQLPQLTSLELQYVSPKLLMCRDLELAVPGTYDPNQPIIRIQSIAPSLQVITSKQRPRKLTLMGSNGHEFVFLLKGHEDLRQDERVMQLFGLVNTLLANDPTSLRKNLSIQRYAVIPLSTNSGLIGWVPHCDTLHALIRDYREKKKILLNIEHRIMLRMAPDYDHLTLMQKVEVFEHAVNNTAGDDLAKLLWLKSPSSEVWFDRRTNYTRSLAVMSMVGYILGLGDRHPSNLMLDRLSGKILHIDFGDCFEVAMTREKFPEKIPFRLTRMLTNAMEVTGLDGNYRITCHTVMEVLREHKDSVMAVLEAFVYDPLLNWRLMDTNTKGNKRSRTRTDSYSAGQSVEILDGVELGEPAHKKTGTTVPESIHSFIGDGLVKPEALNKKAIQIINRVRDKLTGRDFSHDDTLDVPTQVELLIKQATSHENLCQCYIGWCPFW
Sequence of PI3K-α (P42336 whole entry, species assumed): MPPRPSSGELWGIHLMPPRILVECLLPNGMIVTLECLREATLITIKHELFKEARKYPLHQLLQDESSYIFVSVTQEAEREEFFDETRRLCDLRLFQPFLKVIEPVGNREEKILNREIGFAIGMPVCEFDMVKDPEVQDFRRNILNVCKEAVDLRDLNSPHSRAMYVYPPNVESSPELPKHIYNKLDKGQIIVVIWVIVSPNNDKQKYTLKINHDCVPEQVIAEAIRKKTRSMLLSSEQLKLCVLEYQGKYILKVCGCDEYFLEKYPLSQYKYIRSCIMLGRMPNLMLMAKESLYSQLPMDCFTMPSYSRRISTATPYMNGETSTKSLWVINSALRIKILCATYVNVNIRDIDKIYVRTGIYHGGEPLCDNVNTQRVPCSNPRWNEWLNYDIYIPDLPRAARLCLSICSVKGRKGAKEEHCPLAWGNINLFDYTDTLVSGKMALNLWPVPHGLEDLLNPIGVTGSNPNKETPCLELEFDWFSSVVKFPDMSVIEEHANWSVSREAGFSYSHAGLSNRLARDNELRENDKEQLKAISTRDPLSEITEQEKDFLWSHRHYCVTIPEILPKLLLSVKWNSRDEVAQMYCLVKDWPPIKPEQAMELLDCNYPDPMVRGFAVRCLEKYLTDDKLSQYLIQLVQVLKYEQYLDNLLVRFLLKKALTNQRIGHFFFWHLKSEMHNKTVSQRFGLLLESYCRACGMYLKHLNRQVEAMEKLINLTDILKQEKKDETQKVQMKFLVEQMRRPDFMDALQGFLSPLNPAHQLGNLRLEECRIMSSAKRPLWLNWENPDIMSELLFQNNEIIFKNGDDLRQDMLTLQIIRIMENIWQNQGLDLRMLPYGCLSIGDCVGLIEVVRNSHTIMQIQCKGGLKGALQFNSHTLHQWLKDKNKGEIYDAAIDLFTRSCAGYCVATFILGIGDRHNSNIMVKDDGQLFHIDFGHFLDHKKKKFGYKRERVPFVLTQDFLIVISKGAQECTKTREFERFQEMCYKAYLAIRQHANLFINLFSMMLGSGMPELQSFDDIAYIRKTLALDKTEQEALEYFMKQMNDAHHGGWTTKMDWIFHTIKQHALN
Sequence of PI3K-α (P27986 whole entry partner, species assumed): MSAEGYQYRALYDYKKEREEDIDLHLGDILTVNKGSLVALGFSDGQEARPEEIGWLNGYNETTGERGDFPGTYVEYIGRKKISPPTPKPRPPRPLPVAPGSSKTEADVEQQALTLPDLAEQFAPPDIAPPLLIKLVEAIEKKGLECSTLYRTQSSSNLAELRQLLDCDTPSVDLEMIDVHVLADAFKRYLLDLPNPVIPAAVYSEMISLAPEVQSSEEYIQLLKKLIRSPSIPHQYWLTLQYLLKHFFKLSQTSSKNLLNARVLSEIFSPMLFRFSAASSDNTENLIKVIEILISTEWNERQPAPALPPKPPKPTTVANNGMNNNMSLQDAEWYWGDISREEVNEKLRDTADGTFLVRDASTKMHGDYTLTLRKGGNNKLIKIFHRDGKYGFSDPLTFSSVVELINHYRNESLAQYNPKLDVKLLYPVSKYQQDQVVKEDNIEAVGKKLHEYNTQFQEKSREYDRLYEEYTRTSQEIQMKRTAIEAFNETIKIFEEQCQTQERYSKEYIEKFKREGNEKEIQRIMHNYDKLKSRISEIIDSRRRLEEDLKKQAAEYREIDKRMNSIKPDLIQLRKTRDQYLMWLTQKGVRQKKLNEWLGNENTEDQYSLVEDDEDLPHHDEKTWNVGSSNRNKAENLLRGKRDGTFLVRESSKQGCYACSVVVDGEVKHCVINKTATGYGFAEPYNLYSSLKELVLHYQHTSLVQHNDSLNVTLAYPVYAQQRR

| SMILES | IC50 (Human mTOR (FLAG-TOR)) | IC50 [1] [nM] | IC50 ([2]; PC3-mm2 cells) [nM] | IC50 [2] [nM] | IC50 (PI3K-α; read-out: IC50 PI3Kα) [nM] | IC50 (PI3K-γ) [nM] | further results |
| --- | --- | --- | --- | --- | --- | --- | --- |
| O=C(Nc1ccncc1)Nc1ccc(-c2nc(CCC3OCCCO3)nc(N3CCOCC3)n2)cc1 [Example 267, 1-(4-{4-[2-(1,3-dioxan-2-yl)ethyl]-6-morpholin-4-yl-1,3,5-triazin-2-yl}phenyl)-3-pyridin-4-ylurea] | 3.5 nM and 4.3 nM | 94 | 200 | 200 | 17 | 58 | IC50 (PI3K-α; read-out: IC50 PI3Kα, listed as 730): 15.5 nM; IC50 (PI3K-γ; listed as 730): 64.5 nM |
| CCCCc1nc(-c2ccc(NC(=O)Nc3ccc(C(=O)N4CCC(Cc5ccccc5)CC4)cc3)cc2)nc(N2CCOCC2)n1 [Example 270, 1-{4-[(4-benzylpiperidin-1-yl)carbonyl]phenyl}-3-[4-(4-butyl-6-morpholin-4-yl-1,3,5-triazin-2-yl)phenyl]urea] | 160 nM | 397 |  | 953 | 68 | 318 |  |
| CCc1nc(-c2ccc(NC(=O)Nc3ccc(C(=O)NC4CCN(C)CC4)cc3)cc2)nc(N2CCOCC2)n1 [Example 271, 4-({[4-(4-ethyl-6-morpholin-4-yl-1,3,5-triazin-2-yl)phenyl]carbamoyl}amino)-N-(1-methylpiperidin-4-yl)benzamide] | 13 nM | 68 |  | 129 | 2 | 23 |  |
| CCCCc1nc(-c2ccc(NC(=O)Nc3ccc(C(=O)NC4CCN(C)CC4)cc3)cc2)nc(N2CCOCC2)n1 [Example 272, 4-({[4-(4-butyl-6-morpholin-4-yl-1,3,5-triazin-2-yl)phenyl]carbamoyl}amino)-N-(1-methylpiperidin-4-yl)benzamide] | 30 nM | 70 |  | 340 | 5 | 54 |  |
| O=C(Nc1ccncc1)Nc1ccc(-c2nc(N3CCOCC3)nc(N3C4COCC3C(O)C4)n2)cc1 (stereo not drawn) [Example 273, 1-{4-[4-(6-hydroxy-3-oxa-8-azabicyclo[3.2.1]oct-8-yl)-6-morpholin-4-yl-1,3,5-triazin-2-yl]phenyl}-3-pyridin-4-ylurea] | 0.8 nM | 32 |  | 80 | 4 | 33 |  |
| CN(C)CCCc1nc(-c2ccc(NC(=O)Nc3ccncc3)cc2)nc(N2CCOCC2)n1 [Example 274, 1-(4-{4-[3-(dimethylamino)propyl]-6-morpholin-4-yl-1,3,5-triazin-2-yl}phenyl)-3-pyridin-4-ylurea] | 59 nM | 1000 | 1490 | 1490 | 34 | 616 | IC50 (PI3K-α; read-out: IC50 PI3Kα, listed as 731): 33 nM; IC50 (PI3K-γ; listed as 731): 413 nM |
| CC(C)NCCCc1nc(-c2ccc(NC(=O)Nc3ccncc3)cc2)nc(N2CCOCC2)n1 [Example 275, 1-[4-(4-{3-[(1-methylethyl)amino]propyl}-6-morpholin-4-yl-1,3,5-triazin-2-yl)phenyl]-3-pyridin-4-ylurea] | 70 nM and 69 nM | 3100 | 4310 | 4310 | 46 | 711 | IC50 (PI3K-α; read-out: IC50 PI3Kα, listed as 732): 44 nM; IC50 (PI3K-γ; listed as 732): 478 nM |
| O=C(Nc1ccncc1)Nc1ccc(-c2nc(CCCN3CCCC3)nc(N3CCOCC3)n2)cc1 [Example 276, 1-{4-[4-morpholin-4-yl-6-(3-pyrrolidin-1-ylpropyl)-1,3,5-triazin-2-yl]phenyl}-3-pyridin-4-ylurea] | 60 nM and 75.5 nM | 1350 | 1650 | 1650 | 34 | 597 | IC50 (PI3K-α; read-out: IC50 PI3Kα, listed as 733): 31.5 nM; IC50 (PI3K-γ; listed as 733): 412 nM |
| CC(C)Cc1nc(-c2ccc(NC(=O)Nc3ccc(N4CCN(C)CC4)cc3)cc2)nc(N2CCOCC2)n1 [Example 297, 1-[4-(4-methylpiperazin-1-yl)phenyl]-3-{4-[4-(2-methylpropyl)-6-morpholin-4-yl-1,3,5-triazin-2-yl]phenyl}urea] | 10 nM | 115 |  | 290 | 38 | 70 |  |

The next lines start with results.

| IC50 (Human mTOR (FLAG-TOR)) | IC50 [1] [nM] | IC50 ([2]; PC3-mm2 cells) [nM] | IC50 [2] [nM] | IC50 (PI3K-α; read-out: IC50 PI3Kα) [nM] | IC50 (PI3K-γ) [nM] | SMILES | further results |
| --- | --- | --- | --- | --- | --- | --- | --- |
| 60 nM and 59.5 nM | 530 | 572 | 572 | 30 | 276 | CN1CCN(CCCc2nc(-c3ccc(NC(=O)Nc4ccncc4)cc3)nc(N3CCOCC3)n2)CC1 [Example 277, 1-(4-{4-[3-(4-methylpiperazin-1-yl)propyl]-6-morpholin-4-yl-1,3,5-triazin-2-yl}phenyl)-3-pyridin-4-ylurea] | IC50 (PI3K-α; read-out: IC50 PI3Kα, listed as 734): 25.5 nM; IC50 (PI3K-γ; listed as 734): 210 nM |
| 250 nM and 123 nM | 2300 | 3700 | 3700 | 26 | 344 | CN(C)CCNCCCc1nc(-c2ccc(NC(=O)Nc3ccncc3)cc2)nc(N2CCOCC2)n1 [Example 278, 1-{4-[4-(3-{[2-(dimethylamino)ethyl]amino}propyl)-6-morpholin-4-yl-1,3,5-triazin-2-yl]phenyl}-3-pyridin-4-ylurea] | IC50 (PI3K-α; read-out: IC50 PI3Kα, listed as 735): 26.5 nM; IC50 (PI3K-γ; listed as 735): 290 nM |
| 35 nM and 3.6 nM | 176 | 247 | 247 | 10 | 70 | O=C(Nc1ccncc1)Nc1ccc(-c2nc(CCCO)nc(N3CCOCC3)n2)cc1 [Example 279, 1-{4-[4-(3-hydroxypropyl)-6-morpholin-4-yl-1,3,5-triazin-2-yl]phenyl}-3-pyridin-4-ylurea] | IC50 (PI3K-α; read-out: IC50 PI3Kα, listed as 736): 9.5 nM; IC50 (PI3K-γ; listed as 736): 53.5 nM |
| 4 nM and 4.45 nM | 176 | 404 | 404 | 5 | 29 | O=CCCc1nc(-c2ccc(NC(=O)Nc3ccncc3)cc2)nc(N2CCOCC2)n1 [Example 280, 1-{4-[4-morpholin-4-yl-6-(3-oxopropyl)-1,3,5-triazin-2-yl]phenyl}-3-pyridin-4-ylurea] | IC50 (PI3K-α; read-out: IC50 PI3Kα, listed as 737): 7 nM; IC50 (PI3K-γ; listed as 737): 30 nM |
| 4.7 nM and 4.05 nM | 83 | 84 | 84 | 10 | 32 | O=C(Nc1ccncc1)Nc1ccc(-c2nc(N3CCOCC3)nc(N3CC4COC(C3)O4)n2)cc1 (stereo not drawn) [Example 282, 1-{4-[4-(6,8-dioxa-3-azabicyclo[3.2.1]oct-3-yl)-6-morpholin-4-yl-1,3,5-triazin-2-yl]phenyl}-3-pyridin-4-ylurea] | IC50 (PI3K-α; read-out: IC50 PI3Kα, listed as 740): 11.5 nM; IC50 (PI3K-γ; listed as 740): 34.5 nM |
| 3.1 nM | 12.3 | 33.3 | 33.3 | 1 | 11 | CN(C)C1CCN(C(=O)c2ccc(NC(=O)Nc3ccc(-c4nc(C5=CCOCC5)nc(N5CCOCC5)n4)cc3)cc2)CC1 [Example 283, 1-{4-[4-(3,6-dihydro-2H-pyran-4-yl)-6-morpholin-4-yl-1,3,5-triazin-2-yl]phenyl}-3-(4-{[4-(dimethylamino)piperidin-1-yl]carbonyl}phenyl)urea] | IC50 ([1]; MDA-MB-361 cells): 12.3 nM; IC50 (PI3K-α; read-out: IC50 PI3Kα, listed as 505): 0.6 nM; IC50 (PI3K-γ; listed as 505): 5 nM |
| 0.9 nM and 0.97 nM | 12 | 36.3 | 36.3 | 0.7 | 12 | CN(C)CCNC(=O)c1ccc(NC(=O)Nc2ccc(-c3nc(C4=CCOCC4)nc(N4CCOCC4)n3)cc2)cc1 [Example 284, 4-[({4-[4-(3,6-dihydro-2H-pyran-4-yl)-6-morpholin-4-yl-1,3,5-triazin-2-yl]phenyl}carbamoyl)amino]-N-[2-(dimethylamino)ethyl]benzamide] | IC50 (PI3K-α): < 1.9 nM; IC50 (PI3K-γ; listed as 508): 12.5 nM |
| 18 nM | 69 |  | 154 | 9 | 26 | CCCc1nc(-c2ccc(NC(=O)Nc3ccc(N4CCN(C)CC4)cc3)cc2)nc(N2CCOCC2)n1 [Example 294, 1-[4-(4-methylpiperazin-1-yl)phenyl]-3-[4-(4-morpholin-4-yl-6-propyl-1,3,5-triazin-2-yl)phenyl]urea] |  |
| 29 nM | 133 |  | 189 | 19 | 81 | CCc1nc(-c2ccc(NC(=O)Nc3ccc(OCCN(C)C)cc3)cc2)nc(N2CCOCC2)n1 [Example 295, 1-{4-[2-(dimethylamino)ethoxy]phenyl}-3-[4-(4-ethyl-6-morpholin-4-yl-1,3,5-triazin-2-yl)phenyl]urea] |  |
| 21 nM | 83 |  | 133 | 13 | 35 | CCc1nc(-c2ccc(NC(=O)Nc3ccc(N4CCN(C)CC4)cc3)cc2)nc(N2CCOCC2)n1 [Example 296, 1-[4-(4-ethyl-6-morpholin-4-yl-1,3,5-triazin-2-yl)phenyl]-3-[4-(4-methylpiperazin-1-yl)phenyl]urea] |  |
